system: Toxoplasma gondii; assay: Antiparasitic activity against Toxoplasma gondii RH tachyzoites infected in human HFF cells assessed as parasitic growth inhibition; format: functional; details: time 72 hrs, read-out: ED50 (the source's name)

SMILES	EC50
Cc1c(NC(=O)c2ccc(C(C)(C)C)cc2)cccc1-c1cn(C)c(=O)c(Nc2ccc(C(=O)N3CCOCC3)cc2)n1	14.6 µM
CCOc1ccc2cc(-c3nn(C(C)(C)C)c(N)c3C(N)=O)cnc2c1	2.76 µM
CO/N=C(\C(=O)OC)c1ccccc1CO/N=C(\C)c1cccc(C(F)(F)F)c1	0.5 µM
CC[C@]1(C)NC(=O)[C@H](CCCCCC(=O)[C@@H](C)OC(C)=O)NC(=O)[C@H]2C[C@H](C)CN2C(=O)[C@H](Cc2ccccc2)NC1=O	0.001 µM
CNc1[nH]c(Nc2ccc(C(=O)N3CCOCC3)cc2OC)nc2ncc(Cl)c1-2	5.88 µM
CCC(=O)CCCCC[C@@H]1NC(=O)[C@H]2C[C@H](C)CN2C(=O)[C@H](Cc2ccccc2)NC(=O)[C@](C)(CC)NC1=O	0.011 µM
CC(C)(C)C1CCC(CC2C(=O)C(=O)c3ccccc3C2O)CC1 (stereo unspecified)	1.18 µM
O=C(NC1CC1)c1ccc(N2CCC(Cc3ccccc3)CC2)nc1	2.81 µM
O=C1C(O)=C([C@H]2CC[C@H](c3ccc(Cl)cc3)CC2)C(=O)c2ccccc21 [ATOVAQUONE]	0.18 µM
CO/C=C(\C(=O)OC)c1ccccc1Oc1cc(Oc2ccccc2C#N)ncn1 [Azoxystrobin]	7.05 µM
OCCOCCN1CCN(C(c2ccccc2)c2ccc(Cl)cc2)CC1 (stereo unspecified) [HYDROXYZINE]	2.5 µM
Cc1coc2c1C(=O)C(=O)c1c-2ccc2c1CCCC2(C)C [TANSHINONE IIA]	1 µM

system: Toxoplasma gondii; assay: Antiparasitic activity against Toxoplasma gondii EGS infected in human HFF cells; format: functional; details: read-out: ED50 (the source's name)

SMILES	EC50
O=C(CCCCCCC(=O)Nc1ccccc1)NO [VORINOSTAT]	0.07 µM

system: not listed separately; assay: Inhibition of Toxoplasma gondii Heptaprenyl Diphosphate Synthase Coq1 expressed in Escherichia coli BL21; details: not given

SMILES	IC50
CCCCCCCCCC(O)(P(=O)(O)O)P(=O)(O)O	2.13 µM

system: not listed separately; assay: Inhibition of Toxoplasma gondii Farnesyl pyrophosphate synthase; details: not given

SMILES	IC50
CCCCCCCCCC(O)(P(=O)(O)O)P(=O)(O)O	0.13 µM

system: not listed separately; assay: Inhibition of recombinant Toxoplasma gondii Farnesyl pyrophosphate synthase; details: not given

SMILES	IC50
CCCCCCCSCC(P(=O)(O)O)P(=O)(O)O	0.069 µM
CCCCCCCCCCSCC(P(=O)(O)O)P(=O)(O)O	0.021 µM
CCCCCCC[S+]([O-])CC(P(=O)(O)O)P(=O)(O)O (stereo unspecified)	0.009 µM
CCCCCCCCCCS(=O)(=O)CC(P(=O)(O)O)P(=O)(O)O	0.27 µM

system: Toxoplasma gondii; assay: Antiparasitic activity against Toxoplasma gondii tachyzoites infected in hTRET cells assessed as reduction in parasitic growth; format: functional; details: read-out: ED50 (the source's name)

SMILES	EC50
CCCCCCCCCC(O)(P(=O)(O)O)P(=O)(O)O	0.85 µM
COC(=O)/C=C1/S/C(=N/N=C(/C)c2ccccn2)NC1=O	0.2 µM
COC(=O)/C=C1/S/C(=N/N=C(C)\C=N\O)NC1=O	0.49 µM
C[C@@H](COC(=O)N1CCC(n2c(=O)n(C)c3ccccc32)CC1)N(Cc1ccccc1)Cc1ccccc1	0.2 µM
O=C(OCCOCc1ccccc1)N1CCC(n2c(=O)[nH]c3ccccc32)CC1	0.5 µM
COC(=O)/C=C1/S/C(=N/N=C\c2ccccc2O)NC1=O	0.66 µM
C[C@@H](COC(=O)NCCCn1c(=O)n(C)c2ccccc21)N(Cc1ccccc1)Cc1ccccc1	0.38 µM

system: Toxoplasma gondii; assay: Antiparasitic activity against Toxoplasma gondii assessed as parasitic growth inhibition; format: functional, organism-based; details: not given

SMILES	EC50
N#CSCCOc1ccc(Oc2ccccc2)cc1	4.8 µM
N#C[Se]CCOc1cccc(Oc2ccccc2)c1	2.87 µM
N#C[Se]CCOc1ccc(Oc2ccccc2)cc1	3.7 µM

biological target: T1, Bifunctional dihydrofolate reductase-thymidylate synthase (Toxoplasma gondii, UniProt Q07422); assay: Inhibition of Toxoplasma gondii Dihydrofolate reductase; details: not given
T1 sequence (Q07422 whole entry): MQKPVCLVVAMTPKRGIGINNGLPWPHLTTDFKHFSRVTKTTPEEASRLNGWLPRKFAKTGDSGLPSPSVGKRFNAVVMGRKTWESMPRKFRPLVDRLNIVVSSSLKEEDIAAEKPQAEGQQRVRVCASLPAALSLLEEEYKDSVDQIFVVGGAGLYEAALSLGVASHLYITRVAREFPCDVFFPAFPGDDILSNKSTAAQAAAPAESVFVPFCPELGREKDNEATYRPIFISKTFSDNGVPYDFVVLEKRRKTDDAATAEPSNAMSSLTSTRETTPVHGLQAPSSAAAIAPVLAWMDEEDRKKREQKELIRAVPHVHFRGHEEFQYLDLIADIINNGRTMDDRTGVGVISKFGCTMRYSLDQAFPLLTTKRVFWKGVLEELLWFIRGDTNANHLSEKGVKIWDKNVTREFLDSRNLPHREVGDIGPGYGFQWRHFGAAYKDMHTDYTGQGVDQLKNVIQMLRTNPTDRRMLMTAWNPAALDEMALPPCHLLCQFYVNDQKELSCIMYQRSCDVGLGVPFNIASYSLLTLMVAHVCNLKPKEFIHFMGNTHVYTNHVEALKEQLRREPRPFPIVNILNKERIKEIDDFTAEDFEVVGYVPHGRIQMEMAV

SMILES	IC50
CCc1sc2nc(N)[nH]c(=O)c2c1Sc1ccc2ccccc2c1	0.008 µM
CCc1sc2nc(N)[nH]c(=O)c2c1Sc1ccc(C(=O)N[C@@H](CCC(=O)O)C(=O)O)cc1	0.002 µM
COc1ccc(CCCCCCC(=O)O)cc1Cc1cnc2nc(N)nc(N)c2c1OC	0.003 µM
COc1ccc(C#Cc2cccc(C(=O)O)c2)cc1Cc1cnc2nc(N)nc(N)c2c1OC	0.005 µM
CCc1sc2nc(N)[nH]c(=O)c2c1Sc1ccc([N+](=O)[O-])cc1	0.008 µM
CCc1sc2nc(N)[nH]c(=O)c2c1Sc1ccc(Br)cc1	0.01 µM

system: Toxoplasma gondii; assay: Antiparasitic activity against Toxoplasma gondii tachyzoites infected in hTRET cells assessed as parasitic growth inhibition; format: functional, organism-based; details: not given

SMILES	EC50
CCCCCCCSCC(P(=O)(O)O)P(=O)(O)O	0.97 µM
CCCCCCCCCCSCC(P(=O)(O)O)P(=O)(O)O	1.8 µM
CCCCCCC[S+]([O-])CC(P(=O)(O)O)P(=O)(O)O (stereo unspecified)	5 µM
CCCCCCCNCC(P(=O)(O)O)P(=O)(O)O	> 10 µM
CCCCCCCCCCS(=O)(=O)CC(P(=O)(O)O)P(=O)(O)O	0.11 µM
O=P(O)(O)C(CSCCOc1cccc(Oc2ccccc2)c1)P(=O)(O)O	0.67 µM

Source: ChEMBL document CHEMBL5505950, “An updated review of chemical compounds with anti-Toxoplasma gondii activity” (Eur J Med Chem, 2023)
